Measured values as given in patent publication US8969325B2, “TRPV1 antagonists” (AbbVie Inc., priority 2011, dated 2015).

Tests used:
[1] = biological target: T1, human TRPV1 (Homo sapiens (Human), UniProt Q8NER1); experiment: Capsaicin Activation Assay (intracellular Ca2+, FLIPR); assay type: cell-based; settings: recombinant HEK293 cells expressing hTRPV1, 50 nM capsaicin
Method in brief: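 Stably transfected HEK293 cells expressing human TRPV1 cDNA, plated the day before in poly-D-lysine plates. Compounds serially diluted from 10 mM DMSO stocks; intracellular Ca2+ fluorescence read on FLIPR at 1 to 5 second intervals.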

[2] = biological target: T1, human TRPV1; experiment: Acid Activation Assay (pH 5.0, intracellular Ca2+, FLIPR); assay type: cell-based; settings: percentage of the maximal pH 5.0-induced response remaining; recombinant HEK293 hTRPV1 cells; maximum concentration tested 37.5 μM
Method in brief: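 HEK293 cells stably expressing recombinant hTRPV1, loaded with Calcium-4 dye 90-120 min at 25° C. Compounds added over a 12-point half-log range (top 37.5 μM), then pH 5.0 DPBS/MES challenge after 3 min; FLIPR peak fluorescence over baseline given as % of maximal pH 5.0 response.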

T1 sequence (Q8NER1 whole entry): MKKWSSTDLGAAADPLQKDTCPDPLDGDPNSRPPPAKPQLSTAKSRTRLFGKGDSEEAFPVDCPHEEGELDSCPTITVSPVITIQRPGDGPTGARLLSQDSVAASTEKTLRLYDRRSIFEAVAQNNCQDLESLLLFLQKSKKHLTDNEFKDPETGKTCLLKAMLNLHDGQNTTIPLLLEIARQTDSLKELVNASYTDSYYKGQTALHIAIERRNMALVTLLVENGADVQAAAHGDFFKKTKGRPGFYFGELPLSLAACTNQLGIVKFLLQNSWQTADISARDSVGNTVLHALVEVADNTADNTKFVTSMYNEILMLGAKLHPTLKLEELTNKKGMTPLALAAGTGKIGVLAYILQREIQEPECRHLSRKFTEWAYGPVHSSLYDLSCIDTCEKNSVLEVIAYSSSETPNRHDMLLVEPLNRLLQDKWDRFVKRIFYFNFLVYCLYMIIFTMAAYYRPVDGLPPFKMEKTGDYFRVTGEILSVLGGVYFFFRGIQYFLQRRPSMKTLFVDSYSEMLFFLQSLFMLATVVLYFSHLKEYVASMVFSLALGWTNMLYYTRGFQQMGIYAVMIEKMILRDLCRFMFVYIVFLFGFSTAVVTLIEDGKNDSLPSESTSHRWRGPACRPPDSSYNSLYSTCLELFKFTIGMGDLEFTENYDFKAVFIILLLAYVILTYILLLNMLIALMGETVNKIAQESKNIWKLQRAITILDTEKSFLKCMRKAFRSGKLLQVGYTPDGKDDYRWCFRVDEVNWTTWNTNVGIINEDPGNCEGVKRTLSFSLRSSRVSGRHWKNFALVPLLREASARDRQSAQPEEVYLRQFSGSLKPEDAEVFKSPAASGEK

SMILES | IC50 [1] [nM] | human TRPV1 H^+ (max % remain) [2] [%]
C[C@@]1(CF)C[C@@H](NC(=O)Nc2ccc3c(c2)NC(=O)CC3)c2ccc(Cl)cc2O1 [Example 246, 1-[(2S,4R)-7-chloro-2-(fluoromethyl)-2-methyl-3,4-dihydro-2H-chromen-4-yl]-3-(2-oxo-1,2,3,4-tetrahydroquinolin-7-yl)urea] | 130 | 33
C[C@@]1(C(F)F)C[C@@H](NC(=O)Nc2ccc3c(c2)NC(=O)CC3)c2ccccc2O1 [Example 248, 1-[(2S,4R)-2-(difluoromethyl)-2-methyl-3,4-dihydro-2H-chromen-4-yl]-3-(2-oxo-1,2,3,4-tetrahydroquinolin-7-yl)urea] | 160 | 24
CN1C(=O)CCc2c(NC(=O)N[C@@H]3CC(CF)(CF)Oc4cc(Cl)ccc43)cccc21 [Example 254, 1-[(4R)-7-chloro-2,2-bis(fluoromethyl)-3,4-dihydro-2H-chromen-4-yl]-3-(1-methyl-2-oxo-1,2,3,4-tetrahydroquinolin-5-yl)urea] | 130 | 73
CN1C(=O)CCc2ccc(NC(=O)N[C@@H]3CC(C)(C)Oc4c3cccc4C(F)(F)F)cc21 [Example 256, 1-[(4R)-2,2-dimethyl-8-(trifluoromethyl)-3,4-dihydro-2H-chromen-4-yl]-3-(1-methyl-2-oxo-1,2,3,4-tetrahydroquinolin-7-yl)urea] | 390 | 89
CN1C(=O)CCc2ccc(NC(=O)N[C@@H]3CCOc4ccccc43)cc21 [Example 258, 1-[(4R)-3,4-dihydro-2H-chromen-4-yl]-3-(1-methyl-2-oxo-1,2,3,4-tetrahydroquinolin-7-yl)urea] | 170 | 72
CCC1(CC)C[C@@H](NC(=O)Nc2ccc3c(c2)N(C)C(=O)CC3)c2cccc(F)c2O1 [Example 259, 1-[(4R)-2,2-diethyl-8-fluoro-3,4-dihydro-2H-chromen-4-yl]-3-(1-methyl-2-oxo-1,2,3,4-tetrahydroquinolin-7-yl)urea] | 4700 | 89
CCC1(CC)C[C@@H](NC(=O)Nc2ccc3c(c2)N(C)C(=O)CC3)c2ccccc2O1 [Example 260, 1-[(4R)-2,2-diethyl-3,4-dihydro-2H-chromen-4-yl]-3-(1-methyl-2-oxo-1,2,3,4-tetrahydroquinolin-7-yl)urea] | 130 | 61
CCC1(CC)C[C@@H](NC(=O)Nc2ccc3c(c2)N(C)C(=O)CC3)c2ccc(C(F)(F)F)cc2O1 [Example 261, 1-[(4R)-2,2-diethyl-7-(trifluoromethyl)-3,4-dihydro-2H-chromen-4-yl]-3-(1-methyl-2-oxo-1,2,3,4-tetrahydroquinolin-7-yl)urea] | 220 | 70
CCC1(CC)C[C@@H](NC(=O)Nc2ccc3c(c2)N(C)C(=O)CC3)c2ccc(Cl)cc2O1 [Example 262, 1-[(4R)-7-chloro-2,2-diethyl-3,4-dihydro-2H-chromen-4-yl]-3-(1-methyl-2-oxo-1,2,3,4-tetrahydroquinolin-7-yl)urea] | 460 | 37
CN1C(=O)CCc2ccc(NC(=O)N[C@@H]3CC(CF)(CF)Oc4cc(C(F)(F)F)ccc43)cc21 [Example 263, 1-[(4R)-2,2-bis(fluoromethyl)-7-(trifluoromethyl)-3,4-dihydro-2H-chromen-4-yl]-3-(1-methyl-2-oxo-1,2,3,4-tetrahydroquinolin-7-yl)urea] | 500 | 51
CCC1(CC)C[C@@H](NC(=O)Nc2ccc3c(c2)N(C)C(=O)CC3)c2ccc(Cl)c(Cl)c2O1 [Example 264, 1-[(4R)-7,8-dichloro-2,2-diethyl-3,4-dihydro-2H-chromen-4-yl]-3-(1-methyl-2-oxo-1,2,3,4-tetrahydroquinolin-7-yl)urea] | 170 | 82
CN1C(=O)CCc2ccc(NC(=O)N[C@@H]3CC(C)(C)Oc4cc(C(F)(F)F)ccc43)cc21 [Example 265, 1-[(4R)-2,2-dimethyl-7-(trifluoromethyl)-3,4-dihydro-2H-chromen-4-yl]-3-(1-methyl-2-oxo-1,2,3,4-tetrahydroquinolin-7-yl)urea] | 660 | 53
CN1C(=O)CCc2ccc(NC(=O)N[C@@H]3CC(CF)(CF)Oc4ccc(F)cc43)cc21 [Example 267, 1-[(4R)-6-fluoro-2,2-bis(fluoromethyl)-3,4-dihydro-2H-chromen-4-yl]-3-(1-methyl-2-oxo-1,2,3,4-tetrahydroquinolin-7-yl)urea] | 380 | 63

These reach a lower IC50 [1]. Values come first.

IC50 [1] [nM] | human TRPV1 H^+ (max % remain) [2] [%] | SMILES
110 | 28 | C[C@]1(C(F)F)C[C@@H](NC(=O)Nc2ccc3c(c2)NC(=O)CC3)c2ccccc2O1 [Example 249, 1-[(2R,4R)-2-(difluoromethyl)-2-methyl-3,4-dihydro-2H-chromen-4-yl]-3-(2-oxo-1,2,3,4-tetrahydroquinolin-7-yl)urea]
110 | 31 | CN1C(=O)CCc2ccc(NC(=O)N[C@@H]3CC(C)(C)Oc4cc(F)ccc43)cc21 [Example 253, 1-[(4R)-7-fluoro-2,2-dimethyl-3,4-dihydro-2H-chromen-4-yl]-3-(1-methyl-2-oxo-1,2,3,4-tetrahydroquinolin-7-yl)urea]
65 | 54 | CCCC1(CCC)C[C@@H](NC(=O)Nc2ccc3c(c2)N(C)C(=O)CC3)c2cc(F)ccc2O1 [Example 266, 1-[(4R)-6-fluoro-2,2-dipropyl-3,4-dihydro-2H-chromen-4-yl]-3-(1-methyl-2-oxo-1,2,3,4-tetrahydroquinolin-7-yl)urea]
53 | 23 | O=C1CCc2ccc(NC(=O)N[C@@H]3CC(CF)(CF)Oc4cc(F)ccc43)cc2N1 [Example 250, 1-[(4R)-7-fluoro-2,2-bis(fluoromethyl)-3,4-dihydro-2H-chromen-4-yl]-3-(2-oxo-1,2,3,4-tetrahydroquinolin-7-yl)urea]
38 | 18 | CC1(C)C[C@@H](NC(=O)Nc2ccc3c(c2)NC(=O)CC3)c2ccc(C(F)(F)F)nc2O1 [Example 247, 1-[(4R)-2,2-dimethyl-7-(trifluoromethyl)-3,4-dihydro-2H-pyrano[2,3-b]pyridin-4-yl]-3-(2-oxo-1,2,3,4-tetrahydroquinolin-7-yl)urea]
21 | 72 | CN1C(=O)CCc2ccc(NC(=O)N[C@@H]3CC(C)(C)Oc4c(F)cccc43)cc21 [Example 257, 1-[(4R)-8-fluoro-2,2-dimethyl-3,4-dihydro-2H-chromen-4-yl]-3-(1-methyl-2-oxo-1,2,3,4-tetrahydroquinolin-7-yl)urea]
20 | 5 | CN1C(=O)CCc2ccc(NC(=O)N[C@@H]3CC(CF)(CF)Oc4cc(Cl)ccc43)cc21 [Example 255, 1-[(4R)-7-chloro-2,2-bis(fluoromethyl)-3,4-dihydro-2H-chromen-4-yl]-3-(1-methyl-2-oxo-1,2,3,4-tetrahydroquinolin-7-yl)urea]
13 | 48 | O=C1CCc2ccc(NC(=S)N[C@@H]3CC(CF)(CF)Oc4cc(Cl)ccc43)cc2N1 [Example 252, 1-[(4R)-7-chloro-2,2-bis(fluoromethyl)-3,4-dihydro-2H-chromen-4-yl]-3-(2-oxo-1,2,3,4-tetrahydroquinolin-7-yl)thiourea]
